Experimental data published in patent US11261211B2, “19-NOR neuroactive steroids and methods of use thereof” (Sage Therapeutics, Inc., priority 2013, dated 2022).

What was measured:
[1] = biological target: rat brain cortical membranes ([35S]-TBPS binding, GABA receptor complex); test: Steroid inhibition of [35S]-TBPS binding; details: 3 nM [35S]-TBPS, in the presence of 5 μM GABA
Method: TBPS binding assays using rat brain cortical membranes in the presence of 5 μM GABA has been described (Gee et al, J. Pharmacol. Exp. Ther. 1987, 241, 346-353; Hawkinson et al, Mol. Pharmacol. 1994, 46, 977-985; Lewin, A. H et al., Mol. Pharmacol. 1989, 35, 189-194).
Briefly, cortices are rapidly removed following decapitation of carbon dioxide-anesthetized Sprague-Dawley rats (200-250 g). The cortices are homogenized in 10 volumes of ice-cold 0.32 M sucrose using a glass/teflon homogenizer and centrifuged at 1500×g for 10 min at 4° C. The resultant supernatants are centrifuged at 10,000×g for 20 min at 4° C. to obtain the P2 pellets. The P2 pellets are resuspended in 200 mM NaCl/50 mM Na-K phosphate pH 7.4 buffer and centrifuged at 10,000×g for 10 min at 4° C. This washing procedure is repeated twice and the pellets are resuspended in 10 volumes of buffer. Aliquots (100 μL) of the membrane suspensions are incubated with 3 nM [^35S]-TBPS and 5 μL aliquots of test drug dissolved in dimethyl sulfoxide (DMSO) (final 0.5%) in the presence of 5 μM GABA. The incubation is brought to a final volume of 1.0 mL with buffer. […] Filter bound radioactivity is measured by liquid scintillation spectrometry. […]

α1β2γ2 GABAA receptor = α1β2γ2 GABAA receptor (Homo sapiens (Human), UniProt P14867+P47870); test: Patch clamp electrophysiology of recombinant α1β2γ2 GABAA receptors in LTK cells; type: cell-based; details: for activity at 10 µM / Emax: LTK; for activity at 10 µM / α1β2γ2 GABA Qpatch in Ltk (Efficacy at 10 μm): 10 μM compound, Qpatch, Ltk cells, GABA EC20 2 μM; for activity at 10 µM: read-out: α1β2γ2 GABA Qpatch in Ltk (Efficacy at 10 μm); for Emax / EC50: potentiation of GABA EC20 (2 μM) current; for Emax: read-out: GABAa alpha1 (α1β2γ2) Emax (%); for EC50: read-out: GABAa alpha1 (α1β2γ2)EC50
Procedure, shortened: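 Whole-cell voltage clamp at −80 mV, room temperature, in LTK cells stably expressing α1β2γ2 or CHO cells transiently expressing α4β3δ, manual or QPatch. Test article (0.01–10 μM, increasing, 30 s preincubation) then 2 μM GABA (EC20) for 2 s; potentiation = peak current with compound relative to GABA alone ×100.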

α4β3δ GABAA receptor = α4β3δ GABAA receptor (Homo sapiens (Human), UniProt P28472+P48169); test: Patch clamp electrophysiology of recombinant α4β3δ GABAA receptors in CHO cells; type: cell-based; details: 10 μM compound, GABA EC20 2 μM; for activity at 10 µM: manual patch, read-out: α4β3δ GABA Manual Patch in CHO (Efficacy at 10 μM)
Method: Cellular electrophysiology is used to measure the pharmacological properties of our GABAA receptor modulators in heterologous cell systems. Each compound is tested for its ability to affect GABA mediated currents at a submaximal agonist dose (GABA EC20=2 μM). LTK cells are stably transfected with the α1β2γ2 subunits of the GABA receptor and CHO cells are transiently transfected with the α4β3δ subunits via the Lipofecatamine method. Cells were passaged at a confluence of about 50-80% and then seeded onto 35 mm sterile culture dishes containing 2 ml culture complete medium without antibiotics or antimycotics. Confluent clusters of cells are electrically coupled (Pritchett et al., 1988). Because responses in distant cells are not adequately voltage clamped and because of uncertainties about the extent of coupling (Verdoorn et al., 1990), cells were cultivated at a density that enables the recording of single cells (without visible connections to other cells).
Whole cell currents were measured with HEKA EPC-10 amplifiers using PatchMaster software or by using the high throughput QPatch platform (Sophion). Bath solution for all experiments contained (in mM): NaCl 137 mM, KCl 4 mM, CaCl2 1.8 mM, MgCl2 1 mM, HEPES 10 mM, D-Glucose 10 mM, pH (NaOH) 7.4. In some cases 0.005% cremophor was also added. Intracellular (pipette) solution contained: KCl 130 mM, MgCl2 1 mM, Mg-ATP 5 mM, HEPES 10 mM, EGTA 5 mM, pH 7.2. During experiments, cells and solutions were maintained at room temperature (19° C.-30° C.). For manual patch clamp recordings, cell culture dishes were placed on the dish holder of the microscope and continuously perfused (1 ml/min) with bath solution. After formation of a Gigaohm seal between the patch electrodes and the cell (pipette resistance range: 2.5 MΩ-6.0 MΩ; seal resistance range: >1 GΩ) the cell membrane across the pipette tip was ruptured to assure electrical access to the cell interior (whole-cell patch-configuration). For experiments using the QPatch system, cells were transferred as suspension to the QPatch system in the bath solution and automated whole cell recordings were performed.
Cells were voltage clamped at a holding potential of −80 mV. For the analysis of test articles, GABA receptors were stimulated by 2 μM GABA after sequential pre-incubation of increasing concentrations of the test article. Pre-incubation duration was 30 s and the duration of the GABA stimulus was 2 s. Test articles were dissolved in DMSO to form stock solutions (10 mM). Test articles were diluted to 0.01, 0.1, 1, and 10 μM in bath solution. All concentrations of test articles were tested on each cell. The relative percentage potentiation was defined as the peak amplitude in response to GABA EC20 in the presence of the test article divided by the peak amplitude in response to GABA EC20 alone, multiplied by 100.

Row | Structure (SMILES) | activity at 10 µM (α1β2γ2 GABAA receptor) | activity at 10 µM (α4β3δ GABAA receptor) | further results
1 | C[C@@]1(O)CC[C@H]2[C@H](CC[C@@H]3[C@@H]2CC[C@]2(C)[C@@H](C(=O)Cn4nc5cc(F)c(F)cc5n4)CC[C@@H]32)C1 [SA-53] |  |  | IC50 [1]: 0.01 to 0.05 µM
2 | C[C@]12CC[C@H]3[C@@H](CC[C@H]4C[C@@](O)(CF)CC[C@@H]43)[C@@H]1CC[C@@H]2C(=O)Cn1cc2ccc(F)cc2n1 [SG-20] | 100 to 500% | 100 to 500% | 
3 | C[C@@]1(O)CC[C@H]2[C@@H](CC[C@@H]3[C@@H]2CC[C@]2(C)[C@@H](C(=O)Cn4nc5ccncc5n4)CC[C@@H]32)C1 [SB-8] | > 500% | 100 to 500% | 
4 | C[C@]12CC[C@H]3[C@@H](CC[C@@H]4C[C@@](O)(CF)CC[C@@H]43)[C@@H]1CC[C@@H]2C(=O)Cn1nc2ccccc2n1 [SA-80] | > 500% | > 500% | 
5 | C[C@@]1(O)CC[C@H]2[C@H](CC[C@@H]3[C@@H]2CC[C@]2(C)[C@@H](C(=O)Cn4cc5nccnc5n4)CC[C@@H]32)C1 [SA-28] | 100 to 500% | 100 to 500% | 
6 | C[C@@]1(O)CC[C@H]2[C@H](CC[C@@H]3[C@@H]2CC[C@]2(C)[C@@H](C(=O)Cn4cc5cc(Cl)ncc5n4)CC[C@@H]32)C1 [SA-30] | > 500% | > 500% | 
7 | C[C@]12CC[C@H]3[C@@H](CC[C@H]4C[C@@](O)(CF)CC[C@@H]43)[C@@H]1CC[C@@H]2C(=O)Cn1nc2ccncc2n1 [SB-15] | 100 to 500% | 100 to 500% | 
8 | C[C@@]1(O)CC[C@H]2[C@H](CC[C@@H]3[C@@H]2CC[C@]2(C)[C@@H](C(=O)Cn4cc5ccncc5n4)CC[C@@H]32)C1 [SA-20] |  |  | α1β2γ2 GABA Qpatch in Ltk (Efficacy at 10 μm) (α1β2γ2 GABAA receptor): C (“C” indicates an efficacy value of >500%); α4β3δ GABA Manual Patch in CHO (Efficacy at 10 μM) (α4β3δ GABAA receptor): C (“C” indicates an efficacy value of >500%)
9 | C[C@@]1(O)CC[C@H]2[C@H](CC[C@@H]3[C@@H]2CC[C@]2(C)[C@@H](C(=O)Cn4nc5cccc(F)c5n4)CC[C@@H]32)C1 [SA-66] | > 500% | > 500% | 
10 | C[C@@]1(O)CC[C@H]2[C@H](CC[C@@H]3[C@@H]2CC[C@]2(C)[C@@H](C(=O)Cn4cc5ccc(F)cc5n4)CC[C@@H]32)C1 [SA-22] | > 500% | 100 to 500% | 
11 | C[C@@]1(O)CC[C@H]2[C@H](CC[C@@H]3[C@@H]2CC[C@]2(C)[C@@H](C(=O)Cn4cc5ccccc5n4)CC[C@@H]32)C1 [SA-6] |  |  | α1β2γ2 GABA Qpatch in Ltk (Efficacy at 10 μm) (α1β2γ2 GABAA receptor): C (“C” indicates an efficacy value of >500%); Emax (α1β2γ2 GABAA receptor): 500 to 1000%; EC50 (α1β2γ2 GABAA receptor): > 2 µM; α4β3δ GABA Manual Patch in CHO (Efficacy at 10 μM) (α4β3δ GABAA receptor): B (“B” indicates an efficacy value of >100-500%)
12 | C[C@@]1(O)CC[C@H]2[C@H](CC[C@@H]3[C@@H]2CC[C@]2(C)[C@@H](C(=O)Cn4cc5ncccc5n4)CC[C@@H]32)C1 [SA-4] |  |  | α1β2γ2 GABA Qpatch in Ltk (Efficacy at 10 μm) (α1β2γ2 GABAA receptor): C (“C” indicates an efficacy value of >500%); Emax (α1β2γ2 GABAA receptor): 500 to 1000%; EC50 (α1β2γ2 GABAA receptor): 1 to 2 µM; α4β3δ GABA Manual Patch in CHO (Efficacy at 10 μM) (α4β3δ GABAA receptor): B (“B” indicates an efficacy value of >100-500%)
13 | C[C@@]1(O)CC[C@H]2[C@H](CC[C@@H]3[C@@H]2CC[C@]2(C)[C@@H](C(=O)Cn4nc5ccc(Cl)cc5n4)CC[C@@H]32)C1 [SA-41] | > 500% | 100 to 500% | 
14 | C[C@@]1(O)CC[C@H]2[C@H](CC[C@@H]3[C@@H]2CC[C@]2(C)[C@@H](C(=O)Cn4nc5cccc(Cl)c5n4)CC[C@@H]32)C1 [SA-78] | 100 to 500% | 100 to 500% | 
15 | C[C@@]1(O)CC[C@H]2[C@H](CC[C@@H]3[C@@H]2CC[C@]2(C)[C@@H](C(=O)Cn4cc5ncncc5n4)CC[C@@H]32)C1 [SA-32] | > 500% | > 500% | 
16 | Cc1cccc2nn(CC(=O)[C@H]3CC[C@H]4[C@@H]5CC[C@@H]6C[C@](C)(O)CC[C@@H]6[C@H]5CC[C@]34C)nc12 [SA-69] | 100 to 500% | 100 to 500% | 
17 | COC[C@@]1(O)CC[C@H]2[C@@H](CC[C@@H]3[C@@H]2CC[C@]2(C)[C@@H](C(=O)Cn4cc5ccncc5n4)CC[C@@H]32)C1 [SB-45] | 100 to 500% | 100 to 500% | 
18 | C[C@@]1(O)CC[C@H]2[C@H](CC[C@@H]3[C@@H]2CC[C@]2(C)[C@@H](C(=O)Cn4nc5ccccc5n4)CC[C@@H]32)C1 [SA-2] | 100 to 500% | > 500% | Emax (α1β2γ2 GABAA receptor): 0 to 500%; EC50 (α1β2γ2 GABAA receptor): 0.5 to 1 µM
19 | C[C@]12CC[C@H]3[C@@H](CC[C@@H]4C[C@@](O)(CF)CC[C@@H]43)[C@@H]1CC[C@@H]2C(=O)Cn1cc2ncccc2n1 [SA-83] | 100 to 500% | 100 to 500% | 
20 | C[C@@]1(O)CC[C@H]2[C@H](CC[C@@H]3[C@@H]2CC[C@]2(C)[C@@H](C(=O)Cn4nc5cc(Cl)cnc5n4)CC[C@@H]32)C1 [SA-57] | > 500% | 100 to 500% | 
21 | C[C@@]1(O)CC[C@H]2[C@@H](CC[C@@H]3[C@@H]2CC[C@]2(C)[C@@H](C(=O)Cn4cc5ncccc5n4)CC[C@@H]32)C1 [SB-4] |  |  | α1β2γ2 GABA Qpatch in Ltk (Efficacy at 10 μm) (α1β2γ2 GABAA receptor): C (“C” indicates an efficacy value of >500%); α4β3δ GABA Manual Patch in CHO (Efficacy at 10 μM) (α4β3δ GABAA receptor): C (“C” indicates an efficacy value of >500%)
22 | C[C@@]1(O)CC[C@H]2[C@H](CC[C@@H]3[C@@H]2CC[C@]2(C)[C@@H](C(=O)Cn4cc5c(n4)CCCC5)CC[C@@H]32)C1 [SA-7] |  |  | α1β2γ2 GABA Qpatch in Ltk (Efficacy at 10 μm) (α1β2γ2 GABAA receptor): B (“B” indicates an efficacy value of >100-500%); α4β3δ GABA Manual Patch in CHO (Efficacy at 10 μM) (α4β3δ GABAA receptor): B (“B” indicates an efficacy value of >100-500%)
23 | Cc1ccc2nn(CC(=O)[C@H]3CC[C@H]4[C@@H]5CC[C@@H]6C[C@](C)(O)CC[C@@H]6[C@H]5CC[C@]34C)nc2c1 [SA-44] | 100 to 500% | 100 to 500% | 
24 | C[C@@]1(O)CC[C@H]2[C@H](CC[C@@H]3[C@@H]2CC[C@]2(C)[C@@H](C(=O)Cn4cc5cc(F)ccc5n4)CC[C@@H]32)C1 [SA-16] | > 500% | 100 to 500% | 
